Each structure is given as a SMILES string.

This is an account of results in US11674967B2, “Method of identifying potential inhibitors of APO TNFα trimers” (UCB BIOPHARMA SRL, priority 2015, dated 2023).

The target in the test is T1, human TNFα trimer (Homo sapiens, UniProt P01375).
T1 construct: His6Smt-tag (N, cleaved yes); made in house; host or cells: E. coli (vector pEMB54)
T1 sequence (P01375 with tags, fused parts or gaps): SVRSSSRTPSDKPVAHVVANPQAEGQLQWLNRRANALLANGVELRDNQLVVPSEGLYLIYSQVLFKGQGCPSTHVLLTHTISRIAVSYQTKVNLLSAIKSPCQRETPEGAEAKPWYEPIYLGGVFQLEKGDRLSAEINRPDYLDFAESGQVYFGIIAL
Kind of test: RMSD of crystal structure of compound-bound TNFα trimer to Reference Structure Compound 34. To be noted: Cα atoms of β-sheet residues, all three subunits, PyMOL. How it is done: Cells were pre-cultured at 37° C. in rich media, induced with the addition of 0.1% arabinose and allowed to express overnight at 25° C. in vector pEMB54. This vector introduces a cleavable N-terminal His6Smt-tag. The cells were lysed and purified by Ni-NTA chelate chromatography. The fusion protein was eluted with buffer containing imidazole and cleaved by the addition of protease. The final cleaved TNFα protein was purified by a subtractive Ni chelate chromatography step to remove the fusion tag and further purified by size exclusion chromatography to remove the remaining impurities. The final TNFα product was typically concentrated to 20.0 mg/ml and flash frozen in liquid nitrogen.
Purified human TNF[…] (20.0 mg/ml, VC 2043) was diluted to 4-7 mg/ml in 10 mM HEPES pH 7.5, 150 mM NaCl buffer followed by overnight incubation at 4° C. with 0.3-0.5 mM compound (1-2 molar excess). The TNF[…] compound complexes were crystallized by sitting drop vapor diffusion by mixing 0.5 μl of complex with 0.5 μl of 21.44% PEG 3350, 100 mM Tris, pH 9.0 (UCB1474433); or 22.0% PEG 3350, 100 mM glycine, 100 mM Tris, pH 8.5 (UCB1480595); or 25.6% PEG 3350, 100 mM Tris, pH 8.3, 3% xylitol (UCB5143079) or other formulation with varying precipitant concentration or additives over 100 μl of the same crystallization solution. Other formulations for other compounds include a range of PEG 3350 of 8-28%. Other PEG-like additives include PEG 1000 (8-18%) or PEG 2000 (10-13%). Other additives include MPD (5-13%) or 200 mM NaCl. Other buffers include 100 mM Hepes (pH 7-8), 100 mM Tris or bis-Tris (pH 6.7-9.0). Other non-PEG 3350 crystallization solutions consist of PEG 2000 (14-19%), 100 mM Hepes, pH 8, 25 mM arginine; or 17% PEG 10000, 200 mM ammonium acetate, 100 mM bis-Tris, pH 5.5; or 30% PEG 2000 MME, 100 mM sodium acetate, 100 mM Mes, pH 6.5.
Crystals were briefly soaked in ethylene glycol and/or vitrified directly in liquid nitrogen for data collection.
X-ray diffraction data were collected from a synchrotron source at a wavelength, most frequently, of 0.976484 Å and recorded on CCD detector. […] The structure of the human TNF[…] (VC 2043) complexed with compound was solved by molecular replacement using Phaser with input model of 1TNF. […] Iterative manual model building using Coot (Emsley and Cowtan, 2004) and Refmac (Murshudov et al., 1997) continued until R and Rfree converged. […] The resolution of the structures was most frequently around 2.15 Å.
Root mean squared deviation (RMSD) calculations were carried out to ascertain the distance of each of the crystal structures of distorted TNFα trimer to a reference structure.
RMSD calculations were done using the program PyMOL (www.pymol.org). In this example version 1.7. was used. The cmd.rms PyMOL command was used with defined pairs of atoms. The atoms used were the backbone Ca's of certain residues within the β-strands of TNFα. The residue numbers used are shown below:
These residue numbers are those within the published structure of TNFα with PDB code 1A8M and within the distorted TNFα trimer structures of this invention. The residue numbers are also according to the sequence of SEQ ID NO:36. The residues in each of the three chains with the TNFα structures, (labelled A, B, and C according to our instructions) were used.
The command cmd.rms was used with the following arguments:
rms=cmd.rms(“(moving)”, “(target)”, matchmaker=4, quiet=0, cycles=0)
where “(moving)” is the selection of atoms in a given TNFα structure and “(target)” is the selection of equivalent atoms within the reference structure.
The RMSD was calculated for each structure against all others. The “representative structure” or “Reference Structure” was chosen to be the one with the lowest sum RMSD to all others—the structure “Compound 34” or “Compound34.pdb”.
Reference Structure (Compound 34) and Query Structure (Compound 64) were overlaid (see FIG. 17 with Reference Structure emboldened) by: • 1. […]
With `Cc1ccc(C)c(Cn2c(C(O)c3ccc(N(C)C)cc3)nc3ccccc32)c1` (stereo not drawn) [Compound 4], the “RMSD (Å) with Compound 34” value was 0.21 Å. To `Cc1ccc(C)c(Cn2c(Cn3cc(-c4cccc(O)c4)nn3)nc3ccccc32)c1` [Compound 6] belongs 0.21 Å; to `Cc1ccc(C)c(Cn2c(COCc3ccncc3)nc3ccccc32)c1` [Compound 7], 0.25 Å.

`Clc1ccc(Cl)c(Cn2c(Cc3ccncc3)nc3ccccc32)c1` [Compound 8]: the “RMSD (Å) with Compound 34” value worked out at 0.30 Å. For `Cc1ccc(C)c(Nn2c(C(O)c3ccncc3)nc3ccccc32)c1` (stereo not drawn) [Compound 9], the “RMSD (Å) with Compound 34” value stood at 0.28 Å. As for `Cc1ccc(C)c(Cn2c(C(N)c3ccccc3)nc3ccccc32)c1` (stereo not drawn) [Compound 10], the figure is 0.25 Å. As for `Cc1ccc(C)c(Cn2c(C(O)c3ccncc3)nc3cc(-c4ccc(N5CCNCC5)cc4)ccc32)c1` (stereo not drawn) [Compound 11], the figure is 0.30 Å; as for `Cc1ccc(C)c(Cn2c(C(O)c3ccncc3)nc3ccc(-c4cn[nH]c4)cc32)c1` (stereo not drawn) [Compound 12], 0.27 Å; as for `COC(=O)CCc1ccc2nc(C(O)c3ccncc3)n(Cc3cc(C)ccc3C)c2c1` (stereo not drawn) [Compound 13], 0.36 Å.

Regarding `Cc1ccc(C)c(Cn2c(CO)nc3ccc(-c4ccc(N(C)C)nc4)cc32)c1` [Compound 14], the “RMSD (Å) with Compound 34” value is given as 0.30 Å. For the compound `Cc1ccc(C)c(Cn2c(COc3ccc4ccncc4c3)nc3ccccc32)c1` [Compound 16], the “RMSD (Å) with Compound 34” value stood at 0.47 Å. As for `Cc1ccc(C)c(Cn2c(COCc3ccccc3[N+](=O)[O-])nc3ccccc32)c1` [Compound 17], the “RMSD (Å) with Compound 34” value was 0.44 Å.

Consider `Cc1ccc(C)c(Cn2c(Cc3ccncc3)nc3ccc(-c4ccncc4)cc32)c1` [Compound 18], for which the “RMSD (Å) with Compound 34” value was found to be 0.31 Å. To `Cc1ccc(C)c(Cn2c(Cc3ccncc3)nc3ccc(-c4ccc(CN5CCCC5)cc4)cc32)c1` [Compound 19] belongs 0.21 Å; to `CNC(=O)c1ccc(OCc2nc3ccc(-c4ccncc4)cc3n2Cc2cc(Cl)ccc2Cl)cc1` [Compound 20], 0.22 Å. For the compound `NC(=O)c1ccc(OCc2nc3ccc(-c4cc[n+]([O-])cc4)cc3n2Cc2cc(Cl)ccc2Cl)cc1` [Compound 21], the “RMSD (Å) with Compound 34” value is recorded as 0.22 Å. To `Cc1nc(Cn2c(COc3ccc(C(N)=O)cc3)nc3ccc(-c4cc[n+]([O-])cc4)cc32)cs1` [Compound 22] belongs 0.23 Å; to `Cc1nc(Cn2c(COc3ccc(C(N)=O)cc3)nc3ccc(-c4ccncn4)cc32)cs1` [Compound 23], 0.24 Å; to `Cc1nc2ccc(-c3cnn(C)c3)cn2c1Cc1cc(Cl)ccc1Cl` [Compound 24], 0.28 Å. To `COc1ccc(OCc2nc3ccc(Br)cc3n2Cc2nc(C)sc2Cl)cn1` [Compound 25] belongs 0.34 Å. As for `Cc1nc2cnc(-c3ccc(=O)[nH]c3)cn2c1Cc1cc(Cl)ccc1Cl` [Compound 26], the figure is 0.38 Å; as for `N#Cc1ccc2nc(COc3ccc(C(N)=O)nc3)n(Cc3ccccc3OC(F)F)c2c1` [Compound 27], 0.24 Å.

Turning to `CS(=O)(=O)c1cccc(OCc2nc3ccc(C#N)cc3n2Cc2cc(Cl)ccc2Cl)c1` [Compound 28], the “RMSD (Å) with Compound 34” value stood at 0.29 Å. As for `N#Cc1ccc2nc(COc3cccc(N4CCCC4=O)c3)n(Cc3cc(Cl)ccc3Cl)c2c1` [Compound 29], the figure is 0.24 Å; as for `N#Cc1ccc2nc(Cc3ccc(NC(N)=O)cc3)n(Cc3ccccc3OC(F)F)c2c1` [Compound 30], 0.23 Å. As for `N#Cc1ccc2nc(Cc3csc(N4CCNC4=O)n3)n(Cc3ccccc3OC(F)F)c2c1` [Compound 31], the figure is 0.24 Å; as for `Cc1nc2ccc(-c3ccc(N4CCNCC4)nc3)cc2n1Cc1ccccc1OC(F)F` [Compound 32], 0.24 Å. Consider `COCc1nc2ccc(-c3ccc(N4CCN(C(C)=O)CC4)nc3)cc2n1Cc1ccccc1OC(F)F` [Compound 33], for which the “RMSD (Å) with Compound 34” value stood at 0.14 Å.

On to `N#Cc1ccc2nc(COc3cccc(N4CCC(O)C4=O)c3)n(Cc3ccccc3OC(F)F)c2c1` (stereo not drawn) [Compound 35], for which the “RMSD (Å) with Compound 34” value is recorded as 0.16 Å. As for `N#Cc1ccc2nc(COc3cccc(N4CC(O)CC4=O)c3)n(Cc3ccccc3OC(F)F)c2c1` (stereo not drawn) [Compound 36], the figure is 0.21 Å; as for `N#Cc1ccc2nc(COc3cccc(N4CC(O)CC4=O)c3)n(Cc3ccccc3OC(F)F)c2c1` (stereo not drawn) [Compound 37], 0.22 Å.

Take `COCc1nc2ccc(-c3ccc(N4CCNC(=O)C4)nc3)cc2n1Cc1ccccc1OC(F)F` [Compound 38]: the “RMSD (Å) with Compound 34” value was determined as 0.17 Å. As to `N#Cc1ccc2nc(Cn3nnc(N4CCOCC4)n3)n(Cc3ccccc3OC(F)F)c2c1` [Compound 40], the “RMSD (Å) with Compound 34” value was 0.17 Å. As for `Cc1cc(OCc2nc3ccc(C#N)cc3n2C(C)c2ccccc2)no1` (stereo not drawn) [Compound 41], the figure is 0.20 Å; as for `CC(c1ccccc1)n1c(COc2cccc(N3CCCC3=O)c2)nc2ccc(C#N)cc21` (stereo not drawn) [Compound 42], 0.21 Å.

For the compound `COCCNc1ncc(-c2ccc3nc(C)n(Cc4ccccc4OC(F)F)c3c2)cn1` [Compound 44], the “RMSD (Å) with Compound 34” value turned out to be 0.25 Å. To `COc1ccc(-c2ccc3nc(Cc4ccc(S(C)(=O)=O)cc4)n(C(C)c4ccccc4)c3c2)cn1` (stereo not drawn) [Compound 45] belongs 0.24 Å; to `Cc1nc2ccc(-c3cnc(N4CCC(C(=O)O)CC4)nc3)cn2c1Cc1ccccc1OC(F)F` [Compound 46], 0.27 Å; to `Cc1nc2ccc(-c3ccc(N4CCNCC4)nc3)cn2c1C(O)c1ccccc1OC(F)F` (stereo not drawn) [Compound 47], 0.26 Å. As for `COc1ccc(-c2ccc3nc4c(n3c2)C(c2ccccc2)OCC4)cn1` (stereo not drawn) [Compound 48], the figure is 0.30 Å; as for `Cc1ccc(C)c(C2CCc3nc4ccc(Br)cc4n32)c1` (stereo not drawn) [Compound 49], 0.28 Å; as for `CC(c1ccccc1OC(F)F)n1c(COc2cccc(N3CCCC3=O)c2)nc2ccc(Br)cc21` (stereo not drawn) [Compound 50], 0.23 Å. As for `FC(F)Oc1ccccc1C1NCCc2nc3ccc(-c4cnc(N5CCOCC5)nc4)cn3c21` (stereo not drawn) [Compound 51], the figure is 0.34 Å; as for `FC(F)Oc1ccccc1C1CCc2nc3ccc(Br)cc3n21` (stereo not drawn) [Compound 52], 0.26 Å. Take `CC(c1ccccc1OC(F)F)n1c(COc2cccc(N3CCCC3=O)c2)nc2ccc(Br)cc21` (stereo not drawn) [Compound 53]: the “RMSD (Å) with Compound 34” value was found to be 0.24 Å. To `Cc1cc2nc(C)c(Cc3ccccc3OC(F)F)n2cc1-c1cnc(NCC2(C(=O)O)CC2)nc1` [Compound 54] belongs 0.32 Å; to `Cc1nc2ccc(-c3cnc(N4CCNC(=O)CC4C)nc3)cn2c1Cc1ccccc1OC(F)F` (stereo not drawn) [Compound 55], 0.26 Å. As for `Cc1nc2ccc(-c3cnc(N4CCNC(=O)C4)nc3)cn2c1[C@@H](O)c1ccccc1OC(F)F` [Compound 56], the figure is 0.24 Å.
